Columns and labels:
pathogen of the specimen [1] = experiment: Molecular phenotypic antimicrobial susceptibility test with direct PCR at various incubation timepoints (Table 7); format: cell-based
Procedure: Detection of Molecular Phenotypic Antimicrobial Susceptibility. Disclosed herein are the methods for the detection of phenotypic antimicrobial susceptibility via molecular methods. The present invention describes how a specimen 100 with a known microbial load is incubated and then exposed to a panel of antimicrobial agents to determine sensitivity (prevention of growth) or resistance (allowance of growth) to the specific antimicrobial agents tested utilizing molecular methods. Sample Collection. Specimens 100 are collected from patients using sterile collection processes that are employed in routine clinical care. Specimens are transported to the testing facility in boric acid preservative. […] The process for pathogen isolation includes steps of harvesting the pathogen (e.g., via centrifugation), isolating pathogen DNA via a DNA isolation and/or purification kit, and performing PCR on the pathogen DNA via PCR components (e.g., primers, enzymes, buffers) as would be known to the skilled artisan. […] This aliquot is used for antimicrobial susceptibility testing if indicated based on the pathogen detection results. […] Specimens 100 with lower pathogen loads could also be utilized in the antibiotic susceptibility phase of testing with or without a longer incubation period. […] Antimicrobial solutions are prepared at known concentrations. The specific antimicrobials and their concentrations are selected based on the pathogen of interest and the described antimicrobial resistance breakpoints for that specimen pathogen and antimicrobial combination. These antimicrobials have been selected based on those commonly utilized by healthcare providers in routine clinical care for the specific type of suspected infection. The number and types of antimicrobials utilized can be customized based on the infection source, pathogen detected, patient-specific factors such as allergies or other health conditions (e.g., chronic kidney disease or concurrent medication use), or healthcare provider preferences such as antimicrobial availability or cost. The antimicrobial solutions are prepared in liquid culture media (such as Muller Hinton Broth) to achieve the desired antimicrobial concentration and are then stored at −80° C. until use. For a given specimen, each antimicrobial is tested at a single or multiple antimicrobial concentration(s) which is its established breakpoints for sensitivity. The antimicrobial solutions are prepared and plated out for each specific pathogen. […] This allows for evaluation of pathogen load when no antimicrobial is present. Specimen Exposure to Antimicrobial Agents. The 1 mL aliquot of the specimen 100 previously mixed with culture media and incubated is obtained. Using optical density measurements as a guide, the specimen 100 is diluted to 0.5 McFarland. […] Antimicrobial exposure plates are typically placed into an incubator for 12-16 hours. […] Nucleic Acid Amplification of Antimicrobial Agent Exposed Pathogens. The antimicrobial exposure plate is removed after the period of incubation. The specimen then undergoes a purification or lysis step. For example, the specimen may undergo a purification step (e.g., magnetic bead-based or other separation protocol to isolate genetic material). In another example, the specimen may undergo a cell lysis step. For example, buffer (e.g., lysis buffer) may be added and incubated in the thermal cycler for preparation for direct PCR. Next, the specimen may undergo a polymerase chain reaction (PCR) testing protocol, whereby a semi-quantitative PCR method is utilized. This may be completed either with or without a specific extraction protocol step. The pathogens can be individually targeted and detected, or a universal genetic sequence can be utilized to detect the antimicrobial susceptibility of the specimen as a whole. The control wells are utilized as a threshold for determining antimicrobial sensitivity or resistance. […] Antimicrobial Susceptibility Result Interpretation.

pathogen of the specimen [2] = experiment: Traditional culture-based antimicrobial susceptibility test (comparison of Table 7); format: cell-based; details: E. coli isolate 1189
Procedure: Table 7 illustrates the results of an example antimicrobial agent susceptibility test of the current application versus a traditional culture-based antimicrobial agent susceptibility test at multiple incubation timepoints, in accordance with one or more embodiments of the disclosure. These specimens were tested with direct PCR (e.g., no extraction DNA purification step prior to PCR). […] Result Reporting to Healthcare Providers. The results from the antimicrobial exposure are reported to the ordering healthcare provider. This information can be utilized by the healthcare provider when selecting an antimicrobial regimen for their individual patient based on these individual specimen results and patient specific factors. […] The current standard of care for antimicrobial susceptibility testing involves the growth, isolation, and exposure of pathogens to antimicrobials. This traditional culture and sensitivity process can take multiple days to obtain results, limiting the ability of healthcare providers to receive timely results to make actionable changes in patient care or management. Healthcare providers desire a method to obtain antimicrobial susceptibility results with quicker turn-around-time. This application discloses a molecular-based phenotypic antimicrobial susceptibility method which involves pathogen exposure to a panel of antimicrobial agents at their specified minimum inhibitory concentration breakpoints for sensitivity. This method allows for more timely antimicrobial susceptibility results.

E. coli = experiment: Molecular phenotypic antimicrobial susceptibility test with direct PCR (no extraction DNA purification step); format: cell-based, Escherichia coli; details: specimen with <10,000 cells/mL, direct PCR after 16 hours of incubation
Procedure: Detection of Molecular Phenotypic Antimicrobial Susceptibility. Disclosed herein are the methods for the detection of phenotypic antimicrobial susceptibility via molecular methods. The present invention describes how a specimen 100 with a known microbial load is incubated and then exposed to a panel of antimicrobial agents to determine sensitivity (prevention of growth) or resistance (allowance of growth) to the specific antimicrobial agents tested utilizing molecular methods.
Sample Collection. Specimens 100 are collected from patients using sterile collection processes that are employed in routine clinical care. Specimens are transported to the testing facility in boric acid preservative. Specimens 100 are subsequently divided into a first sample 104 and a second sample 108.
Preparation of the Specimens for Testing. The specimens 100 are put through a pathogen identification process using PCR technology (e.g., using the first sample 104). The process for pathogen isolation includes steps of harvesting the pathogen (e.g., via centrifugation), isolating pathogen DNA via a DNA isolation and/or purification kit, and performing PCR on the pathogen DNA via PCR components (e.g., primers, enzymes, buffers) as would be known to the skilled artisan. Simultaneously, an additional aliquot of the same specimen (e.g., the second sample 108) is placed with liquid culture media and incubated for 4-6 hours. This aliquot is used for antimicrobial susceptibility testing if indicated based on the pathogen detection results. After pathogen identification is completed and if more than 10,000 cells/mL of bacteria (e.g., eligible bacteria) are detected in the source specimen, the second sample 108 then enters the antimicrobial susceptibility phase of testing. Specimens 100 with lower pathogen loads could also be utilized in the antibiotic susceptibility phase of testing with or without a longer incubation period.
Preparation of Antimicrobial Susceptibility Testing Plates. Antimicrobial solutions are prepared at known concentrations. The specific antimicrobials and their concentrations are selected based on the pathogen of interest and the described antimicrobial resistance breakpoints for that specimen pathogen and antimicrobial combination. These antimicrobials have been selected based on those commonly utilized by healthcare providers in routine clinical care for the specific type of suspected infection. The number and types of antimicrobials utilized can be customized based on the infection source, pathogen detected, patient-specific factors such as allergies or other health conditions (e.g., chronic kidney disease or concurrent medication use), or healthcare provider preferences such as antimicrobial availability or cost.
The antimicrobial solutions are prepared in liquid culture media (such as Muller Hinton Broth) to achieve the desired antimicrobial concentration and are then stored at −80° C. until use. For a given specimen, each antimicrobial is tested at a single or multiple antimicrobial concentration(s) which is its established breakpoints for sensitivity. The antimicrobial solutions are prepared and plated out for each specific pathogen. This allows ease of use on the day of testing after defrosting the plate 112. Table 1, which illustrates the results of molecular phenotypic antimicrobial susceptibility testing when more than one organism is present in the source specimen, provides an example of an antimicrobial plate 112 prepared for this purpose. Of note, control wells containing only culture media are present on all plates 112. This allows for evaluation of pathogen load when no antimicrobial is present.
Specimen Exposure to Antimicrobial Agents. The 1 mL aliquot of the specimen 100 previously mixed with culture media and incubated is obtained. Using optical density measurements as a guide, the specimen 100 is diluted to 0.5 McFarland. […]

Row | Molecule | Molecular Antimicrobial Susceptibility Result (pathogen of the specimen [1]; E. coli isolate 1189, antibiotic incubation time 4 hours) | Ct at Sensitive Breakpoint (pathogen of the specimen [1]; E. coli isolate 1189, antibiotic incubation time 4 hours, control average Ct […]) | Molecular Antimicrobial Susceptibility Result (pathogen of the specimen [1]; E. coli isolate 1189, antibiotic incubation time 6 hours) | Ct at Sensitive Breakpoint (pathogen of the specimen [1]; E. coli isolate 1189, antibiotic incubation time 6 hours, control average Ct 16.992) | Molecular Antimicrobial Susceptibility Result (pathogen of the specimen [1]; E. coli isolate 1189, antibiotic incubation time 8 hours) | Ct at Sensitive Breakpoint (pathogen of the specimen [1]; E. coli isolate 1189, antibiotic incubation time 8 hours, control average Ct […]) | Molecular Antimicrobial Susceptibility Result (pathogen of the specimen [1]; E. coli isolate 1189, antibiotic incubation time 10 hours) | Ct at Sensitive Breakpoint (pathogen of the specimen [1]; E. coli isolate 1189, antibiotic incubation time 10 hours, control average Ct 15.995) | Molecular Antimicrobial Susceptibility Result (pathogen of the specimen [1]; E. coli isolate 1189, antibiotic incubation time 14 hours) | Ct at Sensitive Breakpoint (pathogen of the specimen [1]; E. coli isolate 1189, antibiotic incubation time 14 hours, control average Ct 15.826) | Molecular Antimicrobial Susceptibility Result (pathogen of the specimen [1]; E. coli isolate 1189, antibiotic incubation time 16 hours) | Ct at Sensitive Breakpoint (pathogen of the specimen [1]; E. coli isolate 1189, antibiotic incubation time 16 hours, control average Ct 14.880) | Traditional Culture Result (pathogen of the specimen [2]) | Molecular Antimicrobial Susceptibility Result (E. coli; E. coli #1 - WDCM 00090 - 6.2×E3) | Ct at Sensitive Breakpoint (E. coli; E. coli #1 - WDCM 00090 - 6.2×E3, Ct at control 13.787) | Molecular Antimicrobial Susceptibility Result (E. coli; E. coli #2 - WDCM 00090 - 6.2×E3) | Ct at Sensitive Breakpoint (E. coli; E. coli #2 - WDCM 00090 - 6.2×E3, Ct at control 13.46)
1 | Amoxicillin/Clavulanate | Resistant | 16.799 | Resistant | 17.105 | Resistant | 17.430 | Resistant | 15.606 | Resistant | 14.226 | Resistant | 14.825 | Resistant |  |  |  | 
2 | C[C@H]1c2cccc(O)c2C(=O)C2=C(O)[C@]3(O)C(=O)C(C(N)=O)=C(O)[C@@H](N(C)C)[C@@H]3[C@@H](O)[C@@H]21 [Doxycycline] |  |  |  |  |  |  |  |  |  |  |  |  |  | Sensitive (Antimicrobial wells with pathogen load detected below the control wells (typically >2 cycle thresholds later) may be reported as Sensitive) | 25.83 | Sensitive (Antimicrobial wells with pathogen load detected below the control wells (typically >2 cycle thresholds later) may be reported as Sensitive) | 27.02

Source: patent US20250290117A1, “MOLECULAR PHENOTYPIC ANTIMICROBIAL SUSCEPTIBILITY TESTING” (priority 2024, published 2025)
